What was measured:
human V1a receptor [1] = target: T1, human V1a receptor (Homo sapiens, UniProt P37288); test: Inhibition of phosphatidylinositol turnover (V1a); assay type: cell-based; settings: V1a
T1 construct: host or cells: CHO cells
Description: Inhibition of phosphatidylinositol turnover (V1a). The physiological effects of vasopressin are mediated through specific G-protein coupled receptors. The vasopressin V1a receptor is coupled to the Gq/G11 family of G proteins and mediates phosphatidylinositol turnover. The agonist or antagonist character of the compounds of the invention may be determined by their ability to inhibit vasopressin-mediated turnover of phosphatidylinositol by the procedure described in the following paragraphs.
Cell culture and labeling of cells. Three days prior to the assay, near-confluent cultures of hV1a or hV1b cells were dissociated and seeded in 6-well tissue culture plates, about 100 wells being seeded from each 75 cm^2 flask (equivalent to 12:1 split ratio). Each well contained 1 mL of growth medium with 2 μCi of [^3H]myo-inositol (American Radiolabeled Chemicals, St. Louis, Mo., USA).
Incubations (V1a and V1b). All assays were in triplicate except for basal and 10 nM AVP (both n=6). AVP ((arginine vasopressin), Peninsula Labs, Belmont, Calif., USA (#8103)) was dissolved in 0.1N acetic acid. Test agents were dissolved in DMSO and diluted in DMSO to 200 times the final test concentration. […] The order of incubations was randomized. Incubations were initiated by removing the prelabeling medium, washing the monolayer once with 1 mL of 0.9% NaCl, and transferring the contents of the assay tubes to corresponding wells. The plates were incubated for 1 hour at 37° C. Incubations were terminated by removing the incubation medium and adding 500 μL of ice cold 5% (w/v) trichloroacetic acid and allowing the wells to stand for 15 min.
Measurement of [^3H]inositol phosphates (V1a and V1b). BioRad Poly-Prep Econo-Columns were packed with 0.3 mL of AG 1×−8 100-200 formate form resin. Resin was mixed 1:1 with water and 0.6 mL added to each column. Columns were then washed with 10 mL water. Scintillation vials (20 mL) were placed under each column. For each well, the contents were transferred to a minicolumn, after which the well was washed with 0.5 mL distilled water, which was also added to the minicolumn. The columns were then washed twice with 5 mL of 5 mM myo-inositol to elute free inositol. Aliquots (1 mL) were transferred to 20 mL scintillation vials and 10 mL of Beckman Ready Protein Plus added. After the myo-inositol wash was complete, empty scintillation vials were placed under the columns, and [^3H]inositol phosphates were eluted with three additions of 1 mL 0.5 M ammonium formate containing 0.1 N formic acid. Elution conditions were optimized to recover inositol mono-, bis-, and trisphosphates, without eluting the more metabolically inert tetrakis-, pentakis-, and hexakis-phosphates. To each sample was added 10 mL of a high salt capacity scintillation fluid such as Tru-Count High Salt Capacity or Packard Hionic-Fluor. Inositol lipids were measured by adding 1 mL of 2% sodium dodecyl sulfate (SDS) to each well, allowing the wells to stand for at least 30 min., and transferring the solution to 20 mL scintillation vials, to which 10 mL Beckman Ready Protein Plus scintillation fluid was then added. Samples were counted in a Beckman LS 3801 liquid scintillation counter for 10 min. Total inositol incorporation for each well was calculated as the sum of free inositol, inositol phosphates, and inositol lipids.
Data analysis (V1a and V1b): concentration-inhibition experiments. Concentration-response curves for AVP and concentration-inhibition curves for test agents versus 10 nM AVP were analyzed by nonlinear least-squares curve-fitting to a 4-parameter logistic function. Parameters for basal and maximal inositol phosphates, EC50 or IC50, and Hill coefficient were varied to achieve the best fit. The curve-fitting was weighted under the assumption that the standard deviation was proportional to dpm of radioactivity. Full concentration-response curves for AVP were run in each experiment. […]

C57B1/6J males = test: Social Interaction Test after chronic social subjugation; assay type: in vivo, mouse; settings: for Distance (traveled in the interaction zone, difference score Post-Pretest) / Time (in the interaction zone, difference score Post-Pretest): mice after 10 day defeat, daily i.p. for 28 days, AVN246-HCl 2 mg/kg, chlordiazepoxide 10 mg/kg; for effect on deficits in social interaction produced by chronic subordination: mice, 28-day treatment regimen
Description: Mouse Chronic Subordination Model of Depression. Social stress is a factor in the etiology of several psychopathologies, with individuals differing in vulnerability. Adult male mice are subjected to a model of chronic psychosocial stress in which resident/intruder dyads live chronically in sensory contact and physically interact on a daily basis.
Anti-depressant Effect in the Social Interaction Test. […] A rapid subjugation paradigm in mice lead to diminished social interaction behavior, where the dependent measures are distance traveled and time in the Interaction Zone. […] These observations are consistent with the subordination/social interaction model as a rapid behavioral screen for potential antidepressants. Additional details are described in Berton et al. (2006).
Briefly, C57B1/6J males were defeated daily for 10 days by resident, highly aggressive CF-1 males. After 5 minutes of direct exposure, a perforated plastic partition was inserted into the cage that allowed olfactory and visual contact without physical defeat for the remaining 23 hr 55 min each day. The C57 males were exposed to a different resident male in a different cage each day to increase the stress of the procedure (it was observed that all CF-1 males attacked the intruder each day). At the end of the 10 day defeat procedure, the C57 males were tested in an open field apparatus during the dark phase. A dominant male was caged in an area of the open field apparatus termed the “social interaction zone.” Time and distance traveled in the zone were recorded. The C57 males were then divided randomly among the following treatments: AVN246-HCl (2 mg/kg), saline vehicle (0.45%), or chlordiazepoxide (10 mg/kg). Treatments were given daily (i.p.) for 28 days and the animals were retested. Behavioral changes were determined by calculating difference scores (Post-Pretest) and these scores were analyzed.

resident male rats = test: Resident-Intruder Model of Stress and Aggression in Rats (neuroimaging); assay type: in vivo, rat; settings: awake resident male rats, 5 mg/kg
Description: Resident-Intruder Model of Stress and Aggression in Rats. Neuroimaging is used to assess the blockade of stress/arousal with test compound compared to control. The effect of AVN251-HCl on functional circuitry was examined using the imaging method for awake rats. Additional details of the assay are described in Ferris et al. (2008).
Male rats in the company of a female cage mate will piloerect in the presence of a male intruder. This piloerection is a sign of stress and aggressive intent and is associated with activation of stress/arousal circuits in the brain. […] Resident male rats from six male:female pairs were imaged while fully awake. During a single imaging session, these males were treated with vehicle or AVN251-HCl (5 mg/kg).
The total volume of brain activation for resident males confronted with their mate alone, mate plus intruder, and mate plus intruder in the presence of AVN251-HCl can be viewed as 3D models. While there appears to be a general decrease in BOLD signal in major regions with AVN251-HCl treatment, sexual motivation, as assessed by the presentation of a novel receptive female, was unaffected by V1a receptor blockade.
Stress circuit activation in response to an intruder male is assessed by obtaining brain scans viewed from a caudal/dorsal perspective as translucent shells. The localization of activated voxels is mapped as 3D volumes of activation, which are composed of 10 subjects each. Once fully registered and segmented, the statistical responses for each subject are averaged on a voxel-by-voxel basis. Those averaged voxels exceeding a 2.0% threshold are shown in their appropriate spatial location. Functional images are acquired on awake rats at 4.7 T.
The 3D volumes of activation are composed from results obtained with 10 subjects in each condition. […] Particular olfactory systems measured included the anterior olfactory nucleus, olfactory tubercle, piriform cortex, n. laterial olfactory tract, and entrorhinal cortex. Particular dopaminergic systems measured included the prelimbic cortex, accumbens, ventral pallidum, medial dorsal thalamus, and ventral tegmentum.
Awake rats were imaged when presented with their mate+an intruder, a highly stressful stimulus.

human V1a receptor [2] = target: T1, human V1a receptor; test: Human vasopressin V1a receptor binding assay (3H-AVP competition, hV1a cell line); settings: CHO cells expressing human V1a, 1 nM 3H-AVP; for Ki: read-out: V1a Ki
Description: Human vasopression V1a receptor binding assay. A cell line expressing the human V1a receptor in CHO cells (henceforth referred to as the hV1a cell line) was obtained from Dr. Michael Brownstein, NIMH, Bethesda, Md., USA. The hV1a cDNA sequence is described by Thibonnier et al., Journal of Biological Chemistry, 269, 3304-3310 (1994), and the expression method was the same as described by Morel et al. (1992). The hV1a cell line was grown in alpha-MEM with 10% fetal bovine serum and 250 ug/ml G418 (Gibco, Grand Island, N.Y., USA). For competitive binding assay, hV1a cells were plated into 6-well culture plate at 1:10 dilution from a confluency flask, and maintained in culture for at least two days. Culture medium was then removed, cells were washed with 2 ml binding buffer (25 mM Hepes, 0.25% BSA, 1×DMEM, PH=7.0). To each well, 990 μl binding buffer containing 1 nM 3H-AVP was added, and followed by 10 μl series diluted Example compounds dissolved in DMSO. […] 100 nM cold AVP (Sigma) was used to assess non-specific binding. Cells were incubated for 45 minutes at 37° C., assay mixture was removed and each well was washed three times with PBS (pH=7.4). 1 ml 2% SDS was added per well and plates were let sit for 30 minutes. The whole content in a well was transferred to a scintillation vial. Each well was rinsed with 0.5 ml PBS which was then added to the corresponding vial. Scintillation fluid (Ecoscint, National Diagnostics, Atlanta, Ga.) was then added at 3 ml per vial. Samples were counted in a liquid scintillation counter (Beckman LS3801). IC50 values were calculated by Prism Curve fitting software.
All of the alkanedioic esters and amides exemplified in the foregoing examples dissolved in DMSO were tested in this assay. Binding curves were generated according to methods described by Thibonnier et al. (1994). [^3H]-AVP was added to the hV1a cell cultures followed by 10-fold dilutions of each test compound.

T1 sequence (P37288 whole entry): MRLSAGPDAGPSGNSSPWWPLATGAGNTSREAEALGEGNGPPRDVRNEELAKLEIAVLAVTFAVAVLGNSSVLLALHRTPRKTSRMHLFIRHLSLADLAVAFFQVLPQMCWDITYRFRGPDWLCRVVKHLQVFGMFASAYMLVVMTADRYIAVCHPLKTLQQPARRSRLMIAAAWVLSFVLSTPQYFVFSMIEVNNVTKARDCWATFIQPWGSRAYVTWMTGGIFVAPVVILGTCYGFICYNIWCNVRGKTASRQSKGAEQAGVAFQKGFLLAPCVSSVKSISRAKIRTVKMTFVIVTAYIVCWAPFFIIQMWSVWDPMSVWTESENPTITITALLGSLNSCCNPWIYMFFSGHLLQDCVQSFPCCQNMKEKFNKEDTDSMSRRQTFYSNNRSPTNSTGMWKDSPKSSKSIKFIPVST

O=C(NCc1cccc(C(F)(F)F)c1)[C@H](CCC(=O)N1CCN(CCc2ccccc2)CC1)N1C(=O)[C@@H](N2C(=O)OC[C@@H]2c2ccccc2)[C@H]1C=Cc1ccccc1 (single isomer, unassigned) [Example 35]
agonist or antagonist character (inhibition of vasopressin-mediated phosphatidylinositol turnover) (human V1a receptor [1]): vasopressin V1a antagonists

O=C(NCc1cccc(C(F)(F)F)c1)C(CC(=O)N1CCC(N2CCCCC2)CC1)N1C(=O)C(N2C(=O)OCC2c2ccccc2)C1C=Cc1ccccc1 (stereo not shown) [Example 44]
agonist or antagonist character (inhibition of vasopressin-mediated phosphatidylinositol turnover) (human V1a receptor [1]): vasopressin V1a antagonists

CC(NC(=O)C(CC(=O)N1CCC(N2CCCCC2)CC1)N1C(=O)C(N2C(=O)OCC2c2ccccc2)C1C=Cc1ccccc1)c1ccccc1.Cl (stereo not shown) [AVN246-HCl]
Distance (traveled in the interaction zone, difference score Post-Pretest) (C57B1/6J males): 22 ± 6
Time (in the interaction zone, difference score Post-Pretest) (C57B1/6J males): 35 ± 10
effect on deficits in social interaction produced by chronic subordination (C57B1/6J males): significantly increased both distance traveled and time in the interaction zone

O=C(NCc1cccc(C(F)(F)F)c1)C(CCC(=O)N1CCC(N2CCCCC2)CC1)N1C(=O)C(N2C(=O)OCC2c2ccccc2)C1C=Cc1ccccc1 (stereo not shown) [Example 88]
agonist or antagonist character (inhibition of vasopressin-mediated phosphatidylinositol turnover) (human V1a receptor [1]): vasopressin V1a antagonists

O=C(NCc1cccc(C(F)(F)F)c1)C(CCC(=O)N1CCN(C2CCCCC2)CC1)N1C(=O)C(N2C(=O)OCC2c2ccccc2)C1C=Cc1ccccc1 (single isomer, unassigned) [Example 110]
agonist or antagonist character (inhibition of vasopressin-mediated phosphatidylinositol turnover) (human V1a receptor [1]): vasopressin V1a antagonists

CNC1=Nc2ccc(Cl)cc2C(c2ccccc2)=[N+]([O-])C1 [CDP, chlordiazepoxide]
Distance (traveled in the interaction zone, difference score Post-Pretest) (C57B1/6J males): 1.0 ± 5
Time (in the interaction zone, difference score Post-Pretest) (C57B1/6J males): 0.0 ± 5^

CNCCC(Oc1ccc(C(F)(F)F)cc1)c1ccccc1 (stereo not shown) [fluoxetine]
effect on deficits in social interaction produced by chronic subordination (C57B1/6J males): reversed deficits produced by chronic subordination
effect on deficits in social interaction produced by chronic subordination (C57B1/6J males; listed as Fluoxetine): produced comparable improvements
sexual motivation (reward circuit activation by novel receptive female) (resident male rats): markedly diminished activation of this circuit

CC(C(=O)NCc1cccc(C(F)(F)F)c1)(C(=O)N1CCC(N2CCCCC2)CC1)N1C(=O)[C@@H](N2C(=O)OC[C@@H]2c2ccccc2)[C@H]1/C=C/c1ccccc1 (mixture of isomers) [Example 234, (2RS)-[4-(piperidinyl)piperidinylcarbonyl]-2-methyl-2-[3(S)-(4(S)-phenyloxazolidin-2-on-3-yl)-4(R)-(2-styryl)azetidin-2-on-1-yl]acetic acid N-(3-trifluoromethylbenzyl)amide]
IC50 (human V1a receptor [2]; read-out: V1a Binding Affinity IC50): 2.37 nM
Ki (human V1a receptor [2]): 1.45 nM

O=C(NCc1cc(C(F)(F)F)cc(C(F)(F)F)c1)[C@H](CCC(=O)N1CCN(C2CCCCC2)CC1)N1C(=O)[C@@H](N2C(=O)OC[C@@H]2c2ccccc2)[C@H]1/C=C/c1ccccc1 [Example 188]
Ki (human V1a receptor [2]): 4.45 nM

O=C(NCc1cccc(Cl)c1Cl)[C@H](CCC(=O)N1CCN(C2CCCCC2)CC1)N1C(=O)[C@@H](N2C(=O)OC[C@@H]2c2ccccc2)[C@H]1/C=C/c1ccccc1 [Example 176]
Ki (human V1a receptor [2]): 0.38 nM
